pIC50: −log10 of the molar value.

We go through one compound from publication PMC2854261 (Analytical biochemistry, 2010).

In this assay the target is human DNA (cytosine-5)-methyltransferase I (DNMT1), Δ501DNMT1 (Homo sapiens, UniProt P26358). Format: biochemical.
Sequence of human DNA (cytosine-5)-methyltransferase I (DNMT1), Δ501DNMT1 (P26358 502-1616, stated change not applied): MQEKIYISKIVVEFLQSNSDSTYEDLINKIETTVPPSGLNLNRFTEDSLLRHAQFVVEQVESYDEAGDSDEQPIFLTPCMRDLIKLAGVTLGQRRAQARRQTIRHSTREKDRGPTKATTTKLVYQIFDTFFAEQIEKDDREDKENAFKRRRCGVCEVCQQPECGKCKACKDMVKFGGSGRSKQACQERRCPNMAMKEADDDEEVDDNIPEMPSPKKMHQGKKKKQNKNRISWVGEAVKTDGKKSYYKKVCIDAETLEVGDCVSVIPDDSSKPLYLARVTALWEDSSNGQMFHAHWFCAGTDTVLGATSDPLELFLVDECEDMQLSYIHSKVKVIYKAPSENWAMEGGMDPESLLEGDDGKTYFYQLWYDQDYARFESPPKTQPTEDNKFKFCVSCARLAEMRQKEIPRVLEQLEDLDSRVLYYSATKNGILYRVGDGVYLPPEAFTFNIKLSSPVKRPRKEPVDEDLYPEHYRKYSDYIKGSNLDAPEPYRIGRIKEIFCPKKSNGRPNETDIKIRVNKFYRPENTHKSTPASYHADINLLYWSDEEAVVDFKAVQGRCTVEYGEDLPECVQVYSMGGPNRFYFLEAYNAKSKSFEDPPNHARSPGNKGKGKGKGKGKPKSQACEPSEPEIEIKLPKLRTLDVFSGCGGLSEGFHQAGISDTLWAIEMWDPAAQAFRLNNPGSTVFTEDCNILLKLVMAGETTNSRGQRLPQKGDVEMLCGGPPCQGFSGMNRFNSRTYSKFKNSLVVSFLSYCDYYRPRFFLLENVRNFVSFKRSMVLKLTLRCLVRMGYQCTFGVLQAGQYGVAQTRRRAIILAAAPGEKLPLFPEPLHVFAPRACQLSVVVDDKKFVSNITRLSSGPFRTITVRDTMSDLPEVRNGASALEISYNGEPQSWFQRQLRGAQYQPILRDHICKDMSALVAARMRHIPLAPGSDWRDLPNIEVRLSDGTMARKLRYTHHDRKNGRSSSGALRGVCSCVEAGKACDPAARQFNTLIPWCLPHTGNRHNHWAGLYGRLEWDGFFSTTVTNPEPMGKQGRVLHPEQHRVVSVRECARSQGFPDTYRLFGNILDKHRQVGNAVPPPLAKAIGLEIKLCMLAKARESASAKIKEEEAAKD

Usually pIC50 stands for −log10 of the IC50, conventionally taken in molar units. Read a low pIC50 as a high IC50. Turning to `Nc1ncnc2c1ncn2[C@@H]1O[C@H](CO)[C@@H](O)[C@H]1O` [adenosine], the negative logarithm of the IC50 (pIC50) was 2.52.
